The values below come from patent US12297207B2, “Maytansinoid derivatives, conjugates thereof, and methods of use” (priority 2015, dated 2025).

The term IC50 denotes the midpoint of a concentration-inhibition curve. As a reminder, the Kd is the concentration at which binding is half-saturated.

Where two headings read alike, the source gives them in different places.

The test system of one series is C4-2 (PSMA+) cells. The series is described as follows: In vitro cytotoxicity assay (CCK8 viability), C4-2 cells. Type of series: cell-based. As for the experimental part:
(§1) In this Example, the ability of various antibody-drug conjugates or their associated payloads to kill antigen-expressing tumor cells in vitro was assessed.
(§2) Ovcar3 (Muc16+) or C4-2 (PSMA+) cells were seeded in 96 well plates at 3000 (C42) cells per well in complete growth media and grown overnight. For cell viability curves, serially diluted conjugates or payloads were added to the cells at final concentrations ranging from 300 nM to 5 pM and incubated for 3 days. To measure viability, cells were incubated with CCK8 (Dojindo) for the final 1-3 hours and the absorbance at 450 nm (OD450) was determined on a Victor (Perkin Elmer). Background OD450 levels determined from digitonin ([…]) treated cells were subtracted from all wells and viability is expressed as a percentage of the untreated controls. IC50 values were determined from a four-parameter logistic equation over a 10-point response curve (GraphPad Prism). All conjugate curves and IC50 values are corrected for payload equivalents.

A further series concerns Ovcar3 (Muc16+) cells. The experiment in a line: In vitro cytotoxicity assay (CCK8 viability), Ovcar3 cells. Type of series: cell-based. The method, then:
as §1, §2

In series [1] the test system is T47D ductal carcinoma line (PRLR+). The series is described as follows: In vitro cytotoxicity assay (CellTiter-Glo), T47D cells. To be noted: for IC50: 5 days, corrected for payload equivalents, read-out: IC50 (cytotoxicity of T47D cells); for maximum percent killing: T47D cells. The format is cell-based, human. As for the experimental part: The present example provides cytotoxicity assays for conjugates provided herein. To evaluate the ability of anti-PRLR antibodies conjugated with 63, 60, 77, and 78 to kill a PRLR expressing cell line, an in vitro cytotoxicity assay using a T47D ductal carcinoma line (ATCC, #HTB-133), which was previously determined to express >27,000 copies of human PRLR at its cell surface, was utilized.
For the assay, T47D cells were seeded onto white 96 well plates at 2,000 cells/well in media containing DMEM supplemented with 10% FBS, NEAA, and pencillin/streptomycinin (complete media). They were grown overnight at 37° C. in 5% CO2. To determine cell viability curves, the following day antibody drug conjugates, unconjugated antibodies, or free payloads were added to the cells at final serial dilutions ranging from 100 nM to 0.01 nM in complete medium and then incubated for an additional 5 days. Luciferase activity was detected after the addition of CellTiter-Glo™ reagent (Promega, G7571) to each well, which contains reagents to lyse the remaining viable cells to release their ATP, ATPase inhibitors to prevent degradation of the ATP, as well as luciferin and luciferase to catalyse the luminescent reaction. Viable cells prior to addition of CellTiter-Glo will be the only source of ATP since the dead cells in culture will not synthesis ATP and any of their released ATP will be destroyed via endogenous ATPases. Relative light units (RLUs) were measured on a Victor luminometer (PerkinElmer) and the results were determined using a four-parameter logistic equation over a 10-point response curve (GraphPad Prism). All measured values and calculated IC50 values were corrected for payload equivalents. All IC50 values are expressed in nM concentration and percent kill is reported for the highest concentration tested.
(Cellular ATP, detected with luciferase, serves as a proxy for viable cell number.)

For series [2], the target named is T1, human PRLR extracellular domain (hPRLR-MMH) (Homo sapiens, UniProt P16471).
T1 construct: human PRLR extracellular domain expressed with a C-terminal myc-myc-hexahistidine tag; myc-myc-hexahistidine (MMH) (C); made in house
T1 sequence (P16471 25-234 limits assumed): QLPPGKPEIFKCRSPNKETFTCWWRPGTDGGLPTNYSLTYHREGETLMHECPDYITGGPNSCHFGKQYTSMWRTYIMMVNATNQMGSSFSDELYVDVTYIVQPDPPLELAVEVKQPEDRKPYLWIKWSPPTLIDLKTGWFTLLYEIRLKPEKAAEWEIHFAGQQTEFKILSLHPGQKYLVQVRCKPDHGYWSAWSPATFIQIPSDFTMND
The series is described as follows: Surface plasmon resonance (Biacore 3000) binding kinetics. To be noted: 25° C. As for the experimental part: Equilibrium dissociation constants (KD values) for human PRLR binding to purified anti-PRLR antibodies that were either unmodified H1H6958N2, PRLR-Q, and PRLR-Q-63 were determined using a real-time surface plasmon resonance biosensor using a Biacore 3000 instrument. The Biacore sensor surface was first derivatized by amine coupling with a monoclonal mouse anti-human Fc antibody (GE, #BR-1008-39) to capture anti-PRLR monoclonal antibodies. All binding studies were performed in 0.01M HEPES pH 7.4, 0.15M NaCl, 3 mM EDTA, and 0.05% v/v Surfactant Tween-20 (HBS-ET running buffer) at 25° C. and 37° C. Different concentrations of human PRLR extracellular domain expressed with a C-terminal myc-myc-hexahistidine tag (hPRLR-MMH; SEQ ID NO: 401 as described in patent application WO 2015026907 A1), in HBS-ET running buffer ([…]) were injected over the anti-PRLR antibody captured surface for 4 minutes at a flow rate of 50 μL/minute and their dissociation in HBS-ET running buffer was monitored for 8 minutes. Kinetic association rate constant (ka) and dissociation rate constant (kd) were determined by fitting the real-time sensorgrams to a 1:1 binding model using Scrubber 2.0c curve fitting software. Binding dissociation equilibrium constants (KD) and dissociative half-lives (t½) were calculated from the kinetic rate constants as: […]
For orientation: In SPR one partner is held on a chip, and binding of the other changes the refractive index at the surface.

[3] abbreviates: Table 2, payloads only, read-out: C4-2 IC50.
Where [4] appears, read: Table 5, payloads only, read-out: C4-2 IC50.
[5] abbreviates: Table 2, payloads only, read-out: Ovcar3 IC50.
[6] abbreviates: Table 5, payloads only, read-out: Ovcar3 IC50.
Where [7] appears, read: C4-2 cells, 3 days, conjugate values corrected for payload equivalents, read-out: IC50.
Where [8] appears, read: Ovcar-3 cells, 3 days, conjugate values corrected for payload equivalents, read-out: IC50.

As to `COc1cc2cc(c1Cl)N(C)C(=O)C[C@H](OC(=O)[C@H](C)N(C)C(=O)c1ccc(N)cc1F)[C@]1(C)O[C@H]1[C@H](C)[C@@H]1C[C@@](O)(NC(=O)O1)[C@H](OC)/C=C/C=C(\C)C2` [Compound 29, Maytansin-N-methyl-L-alanine-(2-fluoro-4-amino)benzamide], the C4-2 % kill was 83% with C4-2 (PSMA+) cells (Table 2, payloads only) and 83% in the series on C4-2 (PSMA+) cells (Table 5, payloads only). For the same molecule, the concentration for half-maximal inhibition (IC50) worked out at 0.27 nM in the series with C4-2 (PSMA+) cells (setting [3]); 0.27 nM in the series on C4-2 (PSMA+) cells (setting [4]); 0.13 nM in the series with Ovcar3 (Muc16+) cells (setting [5]); 0.13 nM in the series on Ovcar3 (Muc16+) cells (setting [6]); 0.07 nM in series [1]. The Ovcar3 % kill in the series on Ovcar3 (Muc16+) cells (Table 2, payloads only) is given as 93%; in the series with Ovcar3 (Muc16+) cells (Table 5, payloads only) it was 93%. In series [1] (highest concentration tested), this molecule showed a maximum percent killing of 67%. In series [1] (Table 5, payloads only, highest concentration tested), the T47D % kill is 67%.

On to `COc1cc2cc(c1Cl)N(C)C(=O)C[C@H](OC(=O)[C@H](C)N(C)C(=O)c1ccc(N)cc1)[C@]1(C)O[C@H]1[C@H](C)[C@@H]1C[C@@](O)(NC(=O)O1)[C@H](OC)/C=C/C=C(\C)C2` [Compound 27, Maytansin-N-methyl-L-alanine-4-aminobenzamide], for which the IC50 in the series with C4-2 (PSMA+) cells (setting [7]) stood at 0.2 nM; with C4-2 (PSMA+) cells (setting [3]), 0.2 nM; in the series with C4-2 (PSMA+) cells (setting [4]) it was 0.2 nM; in the series with Ovcar3 (Muc16+) cells (setting [8]) it was 0.06 nM; in the series on Ovcar3 (Muc16+) cells (setting [5]), 0.09 nM; in the series on Ovcar3 (Muc16+) cells (setting [6]) it was 0.09 nM. Besides, the IC50 in series [1] turned out to be 0.1 nM. In addition, the C4-2 % kill turned out to be 84% in the series on C4-2 (PSMA+) cells (Table 2, payloads only) and 84% in the series with C4-2 (PSMA+) cells (Table 5, payloads only). In addition, the Ovcar3 % kill in the series with Ovcar3 (Muc16+) cells (Table 2, payloads only) came to 92%; with Ovcar3 (Muc16+) cells (Table 5, payloads only), 92%. For the same molecule, the maximum percent killing in series [1] (highest concentration tested) was 67%.

For `COc1cc2cc(c1Cl)N(C)C(=O)C[C@H](OC(=O)[C@H](C)N(C)C(=O)c1ccc(N)cc1C(F)(F)F)[C@]1(C)O[C@H]1[C@H](C)[C@@H]1C[C@@](O)(NC(=O)O1)[C@H](OC)/C=C/C=C(\C)C2` [Compound 31, Maytansin-N-methyl-L-alanine-(2-trifluoromethyl-4-amino)benzamide], the C4-2 % kill in the series on C4-2 (PSMA+) cells (Table 2, payloads only) is 82%; in the series on C4-2 (PSMA+) cells (Table 5, payloads only), 82%. Besides, the half-maximal inhibitory concentration (IC50) came out at 0.1 nM in the series with C4-2 (PSMA+) cells (setting [3]), 0.1 nM in the series with C4-2 (PSMA+) cells (setting [4]), 0.04 nM in the series with Ovcar3 (Muc16+) cells (setting [5]) and 0.04 nM with Ovcar3 (Muc16+) cells (setting [6]). Further, the Ovcar3 % kill is listed as 93% with Ovcar3 (Muc16+) cells (Table 2, payloads only) and 93% in the series on Ovcar3 (Muc16+) cells (Table 5, payloads only).

For the molecule `COc1cc2cc(c1Cl)N(C)C(=O)C[C@H](OC(=O)[C@H](C)N(C)C(=O)c1cc(F)c(N)cc1Cl)[C@]1(C)O[C@H]1[C@H](C)[C@@H]1C[C@@](O)(NC(=O)O1)[C@H](OC)/C=C/C=C(\C)C2` [Compound 37, Maytansin-N-methyl-L-alanine-N-(2-chloro-4-amino-5-fluoro)benzamide], the C4-2 % kill with C4-2 (PSMA+) cells (Table 2, payloads only) was 86%; in the series with C4-2 (PSMA+) cells (Table 5, payloads only), 86%. Besides, the IC50 is 0.01 nM with C4-2 (PSMA+) cells (setting [3]), 0.01 nM with C4-2 (PSMA+) cells (setting [4]), < 0.01 nM in the series on Ovcar3 (Muc16+) cells (setting [5]) and < 0.01 nM in the series on Ovcar3 (Muc16+) cells (setting [6]). Besides, the Ovcar3 % kill with Ovcar3 (Muc16+) cells (Table 2, payloads only) was determined as 94%; in the series on Ovcar3 (Muc16+) cells (Table 5, payloads only), 94%.

As to `COc1cc2cc(c1Cl)N(C)C(=O)C[C@H](OC(=O)[C@H](C)N(C)C(=O)c1ccc(N)c(C(F)(F)F)c1)[C@]1(C)O[C@H]1[C@H](C)[C@@H]1C[C@@](O)(NC(=O)O1)[C@H](OC)/C=C/C=C(\C)C2` [Compound 35, Maytansin-N-methyl-L-alanine-N-(3-trifluoromethyl-4-amino)benzamide], the C4-2 % kill in the series on C4-2 (PSMA+) cells (Table 2, payloads only) stood at 84%; in the series with C4-2 (PSMA+) cells (Table 5, payloads only), 84%. For the same molecule, the IC50 was 0.004 nM in the series with C4-2 (PSMA+) cells (setting [3]), 0.004 nM in the series with C4-2 (PSMA+) cells (setting [4]), < 0.01 nM with Ovcar3 (Muc16+) cells (setting [5]) and < 0.01 nM in the series on Ovcar3 (Muc16+) cells (setting [6]). The Ovcar3 % kill in the series on Ovcar3 (Muc16+) cells (Table 2, payloads only) is listed as 93%; in the series on Ovcar3 (Muc16+) cells (Table 5, payloads only) it was 93%.

In the case of `COc1cc(N)ccc1C(=O)N(C)[C@@H](C)C(=O)O[C@H]1CC(=O)N(C)c2cc(cc(OC)c2Cl)C/C(C)=C/C=C/[C@@H](OC)[C@@]2(O)C[C@H](OC(=O)N2)[C@@H](C)[C@@H]2O[C@@]12C` [Compound 33, Maytansin-N-methyl-L-alanine-(2-methoxy-4-amino)benzamide], the half-inhibitory concentration (IC50) in the series on C4-2 (PSMA+) cells (setting [7]) is 0.55 nM; in the series on C4-2 (PSMA+) cells (setting [3]), 0.45 nM; in the series with C4-2 (PSMA+) cells (setting [4]), 0.45 nM; in the series with Ovcar3 (Muc16+) cells (setting [8]), 0.11 nM; in the series on Ovcar3 (Muc16+) cells (setting [5]) it was 0.2 nM; in the series with Ovcar3 (Muc16+) cells (setting [6]), 0.2 nM. Also, the C4-2 % kill with C4-2 (PSMA+) cells (Table 2, payloads only) stood at 86%; with C4-2 (PSMA+) cells (Table 5, payloads only), 86%. The Ovcar3 % kill worked out at 93% with Ovcar3 (Muc16+) cells (Table 2, payloads only) and 93% with Ovcar3 (Muc16+) cells (Table 5, payloads only).

B1: H1H6958N2 (antibody, V domains shown)
VH: QVQLVESGGGVVQPGRSLRLSCGASGFTFRNYGMQWVRQGPGKGLEWVTLISFDGNDKYYADSVKGRFTISRDNSKNTLFLQMNSLRTEDTAVYYCARGGDFDYWGQGTLVTVSS
VL: DIQMTQSPSSLSASVGDRVTITCRASQDIRKDLGWYQQKPGKAPKRLIYAASSLHSGVPSRFSGSGSGTEFTLTISSLQPEDFATYYCLQHNSYPMYTFGQGTKLEIK
Take B1: the “ka” value in series [2] was 417000 M⁻¹ s⁻¹. Also, the “kd” value in series [2] was 0.000454 s⁻¹. For the same molecule, the “100 nM hPRLR-MMH Bound (RU)” value in series [2] (antibody captured on anti-human Fc surface) worked out at 38 RU. For the same molecule, the Kd in series [2] (calculated from kinetic rate constants, read-out: KD) was 1.09 nM; in series [2] (read-out: KD value), 1.09 nM.
